Source: PubChem BioAssay (NCI)
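Exposure lasted 48 hours, with cells grown in 96-well plates and compounds tested at five concentrations. TGI is the concentration that stops growth completely.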

Columns and labels:
Test in all cases: NCI-60 cell line screen, 48 h
COLO 205 colon = test system: COLO 205 colon
TK-10 renal = test system: TK-10 renal
SW-620 colon = test system: SW-620 colon
NCI/ADR-RES ovarian = test system: NCI/ADR-RES ovarian
MOLT-4 leukemia = test system: MOLT-4 leukemia
SK-MEL-2 melanoma = test system: SK-MEL-2 melanoma
SF-539 CNS = test system: SF-539 CNS
DU-145 prostate = test system: DU-145 prostate
SF-295 CNS = test system: SF-295 CNS
SNB-75 CNS = test system: SNB-75 CNS
SNB-19 CNS = test system: SNB-19 CNS
KM12 colon = test system: KM12 colon
MCF7 breast = test system: MCF7 breast
M14 melanoma = test system: M14 melanoma
SK-MEL-28 melanoma = test system: SK-MEL-28 melanoma
NCI-H226 lung = test system: NCI-H226 lung
RPMI-8226 leukemia = test system: RPMI-8226 leukemia
UACC-257 melanoma = test system: UACC-257 melanoma
UACC-62 melanoma = test system: UACC-62 melanoma
OVCAR-5 ovarian = test system: OVCAR-5 ovarian
CAKI-1 renal = test system: CAKI-1 renal
EKVX NSCLC = test system: EKVX NSCLC
OVCAR-4 ovarian = test system: OVCAR-4 ovarian
OVCAR-8 ovarian = test system: OVCAR-8 ovarian
SK-OV-3 ovarian = test system: SK-OV-3 ovarian
K-562 leukemia = test system: K-562 leukemia
NCI-H460 lung = test system: NCI-H460 lung
MDA-N = test system: MDA-N
HOP-62 NSCLC = test system: HOP-62 NSCLC
NCI-H23 lung = test system: NCI-H23 lung
NCI-H522 lung = test system: NCI-H522 lung
RXF 393 renal = test system: RXF 393 renal
IGROV1 ovarian = test system: IGROV1 ovarian
A549 NSCLC = test system: A549 NSCLC
SK-MEL-5 melanoma = test system: SK-MEL-5 melanoma
HCT-116 colon = test system: HCT-116 colon
HS 578T breast = test system: HS 578T breast
T-47D breast = test system: T-47D breast
HCT-15 colon = test system: HCT-15 colon
U251 CNS = test system: U251 CNS
MALME-3M melanoma = test system: MALME-3M melanoma
HOP-92 NSCLC = test system: HOP-92 NSCLC
BT-549 breast = test system: BT-549 breast
PC-3 prostate = test system: PC-3 prostate
SF-268 CNS = test system: SF-268 CNS
SR leukemia = test system: SR leukemia
786-0 renal = test system: 786-0 renal
LOX IMVI melanoma = test system: LOX IMVI melanoma
MDA-MB-231 breast = test system: MDA-MB-231 breast
A498 renal = test system: A498 renal
SN12C renal = test system: SN12C renal
HT29 colon = test system: HT29 colon
ACHN renal = test system: ACHN renal
OVCAR-3 ovarian = test system: OVCAR-3 ovarian
MDA-MB-435 = test system: MDA-MB-435
HL-60(TB) leukemia = test system: HL-60(TB) leukemia
UO-31 renal = test system: UO-31 renal
HCC-2998 colon = test system: HCC-2998 colon

Measured: TGI

CCOC(=O)c1cnc(N(C)C)nc1SC(=N)N
not listed: HL-60(TB) leukemia | UO-31 renal | HCC-2998 colon
> 100 µM: all other assays above

Nc1nc(Cl)cc(NCC2(O)CCC2)n1
not listed: SNB-19 CNS | M14 melanoma
> 100 µM: all other assays above
